Data on eight compounds can be found in publication PMC12603070, “A high-throughput screening approach to discover potential colorectal cancer chemotherapeutics: repurposing drugs to identify novel disruptors of 14-3-3 proteins” (Cell Death & Disease, 2025).

Where a name gives a salt, the structure may show the parent alone. Read-outs that look alike come from different tables or passages of the source. Numbered stars: 1 amine (or outer) side, 2 acyl side, 3 side chain; on linkers, the order of the positions; unused ones are H or OH. Bridge positions count the residues as written; N and C are the ends. Square brackets hold non-standard residues; d marks the D form. Peptide text beside a SMILES is read from it. * marks the point of attachment. pTerphenylCO(4''-OnC5H11) = CCCCCOc1ccc(-c2ccc(-c3ccc(C(=O)*)cc3)cc2)cc1; Orn(4R-OH,5R-OH) = O=C([C@H](C[C@@H](O)[C@@H](O)N[*:3])N[*:1])[*:2]; hTyr(3S-OH,4S-OH) = N[C@H](C(=O)O)[C@H](O)[C@@H](O)c1ccc(O)cc1; Pro(3S-OH,4S-Me) = C[C@H]1CN[C@H](C(=O)O)[C@H]1O; Hyp = O=C(O)[C@@H]1C[C@@H](O)CN1

One data set deals with HT-29 cells. The data set is described as follows: Hoechst/propidium iodide cell death assay in HT-29. The format is cell-based, human. To be noted: for cytotoxicity at 20 µM: Homo sapiens; for %Cell death HT-29: time not given. The source says:
(§1) A high-content imaging system (PerkinElmer; Operetta CLS), was used to quantify cell death and apoptosis by calculating the number of propidium iodide-positive cells relative to Hoechst-positive cells, and the number of Annexin V-positive cells relative to Hoechst-positive cells, respectively.

The test system of another data set is Caco-2 cells. Format: cell-based. To be noted: for Percentage of cell death % 24h CACO-2: 20 µM; for Percentage of cell death % 48h, Caco-2: 20 μM.
Excerpt: as §1

The test system of another data set is NIH-3T3 cells. The data set is described as follows: Hoechst/propidium iodide cell death assay in NIH-3T3. Format: cell-based. Conditions: for cytotoxicity at 20 µM: Mus musculus, NIH3T3, 24 h, read-out: Percentage of cell death % 24h NIH3t3.
Excerpt: as §1

The target in data set [1] is T1, 14-3-3ζ:BAD-112-136F interactions (Homo sapiens, UniProt P63104).
T1 construct: expressed in transfected cells; host or cells: NIH-3T3 fibroblasts, bi-directional pBI-CMV1 plasmid
T1 sequence (P63104 1-245): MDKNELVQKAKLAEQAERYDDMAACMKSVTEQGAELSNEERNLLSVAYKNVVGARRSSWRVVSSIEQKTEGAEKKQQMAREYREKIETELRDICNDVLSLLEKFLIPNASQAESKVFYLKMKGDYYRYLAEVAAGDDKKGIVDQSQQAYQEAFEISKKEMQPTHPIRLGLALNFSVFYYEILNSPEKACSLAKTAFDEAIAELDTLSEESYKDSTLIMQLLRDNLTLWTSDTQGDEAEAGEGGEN
Nature of the data set: BRET sensor screen for disruption of 14-3-3ζ-Rluc8:BAD-112-136F-mCitrine in living NIH-3T3 cells. The format is cell-based, murine. Details: inhibition: dose or concentration left out as unconfirmed; BRET reduction on NIH-3T3: unit not given here. Conditions: for inhibition / inhibition at 20 µM: NIH3T3, 3 h, read-out: BRET reduction on NIH-3T3. On the procedure: The Z’-score, which evaluates the robustness of an HTS assay readout, was calculated according to standard protocols. For the HTS, 384-well plates were coated with 100 μg/mL poly-L-ornithine (Sigma, Missouri, United States; #P3655) overnight at 37 °C, followed by rinsing with sterilized water. NIH-3T3 cells were transfected with the BRET sensor two days prior to experimentation, followed by replating onto the pre-coated 384-well plates at a density of 20,000 cells/well. After 24 h of incubation at 37 °C, growth media was replaced by Krebs buffer (pH 7.4).
(In BRET a luciferase serves as donor, and the signal depends on an acceptor being close.)

Setting [2] is: HT-29, 24 h, 20 µM, 24 h, read-out: Percentage of cell death % 24h HT-29.
Setting [3] is: HT-29, 48 h, HT-29, 48h, 20 μM, read-out: Percentage of cell death % 48h, HT-29.
Where [4] appears, read: NIH-3T3 cells, hits from the primary screen.
Setting [5] is: NIH-3T3 expressing BRET sensor, 20 µM, 3 h.
[6] abbreviates: HT-29, 24 h, read-out: Percentage of cell death % 24h HT-29.
The mark [7] stands for this setting: HT-29, 48 h, read-out: Percentage of cell death % 48h, HT-29.

For the compound `Cn1ncc(Cl)c1-c1cc(C(=O)N[C@H](CN)Cc2cccc(F)c2)sc1Cl` [Afuresertib], the cytotoxicity at 20 µM with HT-29 cells (setting [2]) was found to be 3.99%; in the data set with HT-29 cells (setting [3]) it was 37.5%; in the data set on NIH-3T3 cells (20 µM, 24 h), 57.7%. In addition, in the data set with Caco-2 cells, the “Percentage of cell death % 24h CACO-2” value came out at 23.3726%. In the data set on Caco-2 cells (Caco-2), the “Percentage of cell death % 48h, Caco-2” value is reported as 43.2801%. Moreover, the “Percentage of cell death % 48h, NIH3T3” value in the data set on NIH-3T3 cells worked out at 38.6266%. For the same compound, the inhibition in data set [1] (setting [4]) was 27.8%. For the same compound, the inhibition at 20 µM in data set [1] (setting [5]) came to 27.8%.
As to `CCCCCOc1ccc(-c2ccc(-c3ccc(C(=O)N[C@H]4C[C@@H](O)[C@@H](O)NC(=O)[C@@H]5[C@@H](O)[C@@H](C)CN5C(=O)[C@H]([C@@H](C)O)NC(=O)[C@H]([C@H](O)[C@@H](O)c5ccc(O)cc5)NC(=O)[C@@H]5C[C@@H](O)CN5C(=O)[C@H]([C@@H](C)O)NC4=O)cc3)cc2)cc1` [Anidulafungin] ({pTerphenylCO(4''-OnC5H11)}-[Orn(4R-OH,5R-OH)]T[Hyp][hTyr(3S-OH,4S-OH)]T[Pro(3S-OH,4S-Me)]; lactam 1-C), the cytotoxicity at 20 µM in the data set with HT-29 cells (setting [6]) came out at 4.73%; in the data set with HT-29 cells (setting [7]), 7.05%; with NIH-3T3 cells it was 33.6%. Moreover, the “Percentage of cell death % 24h CACO-2” value in the data set with Caco-2 cells was determined as 1.705%. Moreover, the “Percentage of cell death % 48h, Caco-2” value in the data set with Caco-2 cells (Caco-2) was 1.424%. In addition, the “Percentage of cell death % 48h, NIH3T3” value with NIH-3T3 cells turned out to be 12.0742%. Further, the inhibition at 20 µM in data set [1] was found to be 27%. The “BRET reduction on NIH-3T3” value in data set [1] (setting [4]) was found to be 27.0241.
On to `CC1=C(C(=O)OC(C)C)C(c2cccc([N+](=O)[O-])c2)C(C(=O)OC2CN(C(c3ccccc3)c3ccccc3)C2)=C(N)N1` (centres unmarked) [Azelnidipine], for which the “%Cell death HT-29” value in the data set with HT-29 cells (HT-29) was found to be 91.6%. The cytotoxicity at 20 µM was found to be 66.4% with HT-29 cells (setting [2]); 91.6% in the data set with HT-29 cells (setting [3]); 75.6% with NIH-3T3 cells (20 µM, 24 h). Besides, the “Percentage of cell death % 24h CACO-2” value with Caco-2 cells is 9.563%. In addition, the “Percentage of cell death % 48h, Caco-2” value with Caco-2 cells (Caco-2) is reported as 13.6799%. Also, in the data set with Caco-2 cells (Caco-2, time not given, text says 48 h), the “%Cell death Caco-2” value is on record as 13.7%. Moreover, in the data set on NIH-3T3 cells, the “Percentage of cell death % 48h, NIH3T3” value was 71.6636%. For the same compound, the inhibition in data set [1] (setting [4]) amounted to 40.2%. For the same compound, in data set [1] (setting [5]), the inhibition at 20 µM came out at 40.2%.
Turning to `CCc1cc(/C(C)=N/OCc2ccc(C3CCCCC3)c(C(F)(F)F)c2)ccc1CN1CC(C(=O)O)C1` [BAF312 (Siponimod), Siponimod], the cytotoxicity at 20 µM was found to be 0.683% in the data set on HT-29 cells (setting [2]); 1.58% in the data set on HT-29 cells (setting [3]); 0.738% in the data set on NIH-3T3 cells (20 µM, 24 h). In addition, in the data set with Caco-2 cells, the “Percentage of cell death % 24h CACO-2” value came to 2.6196%. The “Percentage of cell death % 48h, Caco-2” value in the data set on Caco-2 cells (Caco-2) was found to be 2.567%. Besides, in the data set on NIH-3T3 cells, the “Percentage of cell death % 48h, NIH3T3” value was 0.7911%. The inhibition in data set [1] (setting [4]) was 28.7%. The inhibition at 20 µM in data set [1] (setting [5]) came to 28.7%.
`CCCCCCCCCCCCCCCC[n+]1ccccc1` [Cetylpyridinium Chloride]: the cytotoxicity at 20 µM turned out to be 27.2% in the data set on HT-29 cells (setting [6]), 76.9% with HT-29 cells (setting [7]) and 81.9% with NIH-3T3 cells. Moreover, the “Percentage of cell death % 24h CACO-2” value in the data set with Caco-2 cells came out at 22.2457%. Besides, the “Percentage of cell death % 48h, Caco-2” value with Caco-2 cells (Caco-2) stood at 63.7687%. In addition, the “Percentage of cell death % 48h, NIH3T3” value in the data set with NIH-3T3 cells came out at 74.7179%.
On to `Clc1ccc(CO/N=C(\Cn2ccnc2)c2ccc(Cl)cc2Cl)c(Cl)c1.O=[N+]([O-])O` [Oxiconazole (nitrate)], for which, in the data set with HT-29 cells (20 µM, 24 h), the “Percentage of cell death % 24h HT-29” value is listed as 3.543%. Moreover, the “Percentage of cell death % 48h, HT-29” value in the data set on HT-29 cells (HT-29, 48h, 20 μM) is recorded as 5.935%. In the data set on Caco-2 cells, the “Percentage of cell death % 24h CACO-2” value was determined as 8.851%. Moreover, the “Percentage of cell death % 48h, Caco-2” value in the data set with Caco-2 cells (Caco-2) is 7.056%. The “Percentage of cell death % 24h NIH3t3” value with NIH-3T3 cells (20 µM, 24 h) is on record as 5.3556%. The “Percentage of cell death % 48h, NIH3T3” value with NIH-3T3 cells is listed as 4.864%.
Regarding `CC/C(=C(\c1ccccc1)c1ccc(OCCN(C)C)cc1)c1ccccc1` [Tamoxifen], the “Percentage of cell death % 24h HT-29” value with HT-29 cells (20 µM, 24 h) worked out at 3.365%. In the data set with HT-29 cells (HT-29, 48h, 20 μM), the “Percentage of cell death % 48h, HT-29” value was found to be 61.8661%. Further, in the data set with HT-29 cells (HT-29), the “%Cell death HT-29” value is recorded as 63.3%. Also, the “Percentage of cell death % 24h NIH3t3” value with NIH-3T3 cells (20 µM, 24 h) stood at 81.9489%. In addition, the “Percentage of cell death % 48h, NIH3T3” value in the data set with NIH-3T3 cells came out at 78.8324%. In addition, the “BRET reduction on NIH-3T3” value in data set [1] (setting [4]) and in data set [1] (setting [5]) was 54.2923 each time.
With `CSc1ccc2c(c1)N(CCC1CCCCN1C)c1ccccc1S2` (centres unmarked) [Thioridazine HCl], the cytotoxicity at 20 µM came to 1.72% in the data set with HT-29 cells (setting [2]); 16.7% in the data set with HT-29 cells (setting [3]); 83.3% in the data set with NIH-3T3 cells (20 µM, 24 h). Besides, the “Percentage of cell death % 48h, NIH3T3” value with NIH-3T3 cells amounted to 84.4863%. Besides, the inhibition in data set [1] (setting [4]) came out at 27.4%. The inhibition at 20 µM in data set [1] (setting [5]) stood at 27.4%.
